Consider two molecules from US20170088623A1, “Prophylaxis Against Cancer Metastasis” (Ingeneron, Inc., priority 2015, published 2017).

The subject of one assay is CXCR4 receptor. To be noted: animal and human studies; cited from earlier work.
In assay [1] the test system is LCN2 expression in SKBr3 cells. In words: LCN2 levels in HER2+ SKBr3 cells by Western blotting. The assay is classed as cell-based, human. To be noted: SKBr3 cells incubated with inhibitor. From the text: FIGS. 3A-D depict experiments showing that LCN2 (NGAL) is a down-stream target of the HER2/PI-3K/AKT/NF-κB pathway.
In addition, overexpression of dominant negative AKT led to reduced expression of LCN2, while overexpression of dominant active AKT increased LCN2 levels ([…]). […] Iannetti A, et al. “The neutrophil gelatinase-associated lipocalin (NGAL), a NF-kappaB-regulated gene, is a survival factor for thyroid neoplastic cells” Proc Natl Acad Sci USA 105(37) (2008) 14058.

With `c1cc(CN2CCCNCCNCCCNCC2)ccc1CN1CCCNCCNCCCNCC1` [AMD3100], the “hematopoietic stem cell mobilization” value with CXCR4 receptor is “able to induce hematopoietic stem cell mobilization”.

`Cc1ccc(S(=O)(=O)/C=C/C#N)cc1` [Bay11-7082]: in assay [1], the LCN2 expression result is “reduced in a dose-dependent manner”.
